# Reference: patent US5583155A, “6-amino-1,2-benzopyrones useful for treatment of viral diseases” (Octamer, Inc., priority 1994, dated 1996)
# “Also recorded” adds a separate entry of the source.
# How the values were obtained:
# [1] = test system: HIV in human lymphoblasts; test: HIV production in human lymphoblasts (p24 antigen); assay type: cell-based, HIV (isolates from blood of infected patients)
# Description: In FIG. 10, human lymphoblast exposed to 6-ABP for 18 hours. The drug concentrations studied were between 0.01 to 10 mM. HIV production was studied in two time intervals, 6 and 12 days after the drug removal.
# In FIGS. 11A through 11E, normal lymphoblasts stimulated with PHA are infected with HIV and at the same time are submitted to various concentrations from 0-10 mM 6-ABP. After the short exposure of 18 hours, both HIV and 6-ABP are removed, FIGS. 11A, 11C, 11E and the 6-ABP in the same concentrations is readded up to 4 days to cultures shown in FIGS. 11B and 11D. At 4 days, proliferation index measured by ^3 H-thymidine incorporation is determined in FIGS. 11A and 11B. […] In FIGS. 11C and […], the viral synthesis or inhibition is measured by p 24 assay.
# The HIV isolates used in these experiments were isolated from the blood of infected patients. After isolation, HIV infection was established in CEM cells, and these infected cells were used to produce a stock of HIV virus that was titered to measure the concentration of tissue culture infective doses (TCID).
# 6 ABP was dissolved in saline in amount which was further diluted as required, and added to the culture medium containing cells at the indicated concentrations.
# Human peripheral blood mononuclear cells from a noninfected, normal individual were stimulated for 2 to 3 days with phytohemagglutinin in tissue culture, washed, aliquoted and cultured overnight with 200 TCID or 50 TCID of HIV and were untreated or treated with 0.01, 0.1, 1.0 or 10.0 mM 6-ABP. An additional control was incubated with 10 mM 6-ABP without presence of HIV. After the overnight incubation, […]. The cells were placed in culture in medium containing IL-2, but in the absence of additional 6-ABP, and monitored at 6 days and 12 days for the production of HIV-p24 core antigen, or for measurements of particulate reverse transcriptase. A decrease in the amount of either of these indicators of HIV indicated an inhibition by 6-ABP in the ability of HIV to replicate in normal human lymphoblasts.
# HIV p24 antigen was measured by ELISA, with a cutoff of 5 pgm/ml. Particulate reverse transcriptase was measured by centrifuging down free virus from tissue culture fluids, lysing HIV in a buffer containing detergent, magnesium, H3-labelled dTTP and poly rA.oligo dT primer, incubating for 1 hour, and measuring precipitable radioactivity, expressed as cpm per volume of HIV-containing medium.
# [2] = Aqueous solubility and solution stability; assay type: physicochemical
# [3] = test system: ADPRT; test: Binding to ADPRT; conditions: enzymes other than ADPRT
# [4] = Yakugaku Zasshi, cited from earlier work
# [5] = test system: AA-2 cells; test: AA-2 cell count and viability; assay type: cell-based; conditions: 3 mM
# Description: The effects of 6-ABP treatment of AA-2 cells was directly analyzed by cell count and viability tests including cloning efficiency and trypan blue uptake. The AA2 cell culture having initial cell count per well 0.5×10^5 was submitted to treatment with 3 mM of 6-ABP and compared to untreated (Control) cell culture. The cells were counted 4 days after the treatment with 6-ABP.
# [6] = test system: HIV in AA-2 cells; test: HIV replication in AA-2 cells (p 24 ELISA); assay type: cell-based; conditions: 3 mM
# Description: The effects of 3 mM 6-ABP on HIV replication in AA-2 cells using the same experimental set-up as for FIG. 7 was followed by the conventional analysis of p 24 formation by automated ELISA tests. The results are shown in FIG. 8, where as in FIG. 7, the influence of varying HIV concentrations infecting HIV dilution, from 1:100 to 1:1600 or p 24 input, as shown in graph, was monitored.
# [7] = test system: HIV (activated by HSV IE-110) in U937 cells; test: HIV growth activated by HSV IE110 in U937 cells (syncytium-forming assay)
# Description: For the purpose of determining the ability of 6-ABP to inhibit HIV growth activation, the duplicate cells cultures were used. In experiments 1 and 2, U937 cells were transfected with HSV IE-110 gene and, CMV IE gene and infected HIV. […] In experiment 3, U937 cells transfected with HSV IE-110 and infected with HIV were treated with 3 mM of 6-ABP.
# In all experiments shown in FIG. 3 and 4, the cells were exposed to 3 mM drug for 24 hrs.
# DNA transfection was performed with DEAE dextran. Briefly, U937 cells (5×10^6) were exposed for 60 min. at 37° C. to a mixture of DEAE Dextran (1.05 ug/ml) and DNA in STBS buffer (25 mM Tris HCl, having pH 7.5, 137 mM NaCl, 0.5 MgCl2, 0.7 mM CaCl2 and 5 mM KCl and 0.6 mM Na2 HPO4) in 15 ml snap cap 6×35 mm polyethylene dishes from Costar, Cambridge, Mass., at 5×10^6 cells per well. Routinely, transfection mixtures contained 1.0 ug of target supercoiled plasmid and 0.1 ug DNA to equalize nucleic acid concentration effects. Transfected cells were harvested 40 to 44 hr post transfection in CAT harvest buffer (40 mM Tris, having pH 7.4 150 mM NaCl, 1 mM EDTA) and stored at -20° C. until assayed.
# In one series of experiments, the effect of HSV IE110 and CMV IE2 gene expression on HIV replication using the syncytium assay formation on MT2 cells that defines HIV growth was examined. The ability of 6-ABP to inhibit HIV growth activation was studied in duplicate cultures. U937 cells were transfected with HSV IE110 CMV IE genes or mock transfected with pBR322 plasmid and duplicate cells were pretreated with HIV. Virus (HIV) growth was assayed at various times thereafter. HIV titers are expressed as syncytia forming units/ml.
# Transfection was 24 hours before HIV infection. Sampling was done at days 3, 5, 6, and 8 post infection with HIV. 6-ABP treatment was 24 hours prior to transfection in order to allow intercellular 6-ABP concentration to equilibrate with external drug concentration. The timing chosen and drug dosage relate to drug penetration.
# [8] = test system: HIV in whole blood; test: HIV inhibition in whole blood of HIV infected patients; assay type: cell-based; conditions: FIG. 10 results repeated in whole blood
# [9] = assay type: in vivo
# Description: This example illustrates the lack of toxicity after intraperitoneal administration of 6-ABP to mice.
# Two toxicological tests administering 6-ABP to mice were performed under the following conditions.
# One group of 5 mice received 6-ABP i.p. injection in amount of 1 g/kg.
# Group of 50 white mice was injected daily with 250 mg/kg 6-ABP i.p. for 12 days.
# [10] = test system: CMV; test: microbe, parasite or virus in culture; assay type: cell-based, human cytomegalovirus (patient isolate)
# [11] = test system: RSV; test: microbe, parasite or virus in culture; assay type: cell-based, Respiratory Syncytium virus (patient isolate)
# [12] = test system: HIV in U937 cells; test: HIV growth in U937 cells without activator (syncytium-forming assay); assay type: cell-based, HIV-1
# Description: In order to assess a possible direct effect of the drug on the growth of HIV, experiments shown in FIG. 3 were reproduced, except that conditions of virus titration (by SFU) were refined, to detect relatively low virus titers.
# Transfection was 24 hours before HIV infection.
# [13] = 1 mM 6-ABP, 24 hours before infection
structure (smiles),measurement,setting,value
"Nc1ccc2oc(=O)ccc2c1 [6-ABP, 6-amino-1,2-benzopyrone]","viral multiplication, p 24 assay","[1]; 0-10 mM, 18 hours or 4 days exposure, FIGS. 11C and 11D",almost completely inhibited
same,HIV production in human lymphoblasts,"[1]; 0.1 μM (so in the source), 18 hours exposure, 6 and 12 days",HIV production decreased dramatically
same,decrease of HIV (p24 tests),"[1]; 0.1 mM, 18 hours exposure, 6 or 12 days past infection",dramatic decrease of HIV
same,selectivity against HIV replication vs cellular DNA synthesis,"[1]; 18 hr exposure, FIG. 11",great selectivity of 6-ABP against HIV replication
same,solution stability,"[2]; 10-12 mM solution, pH 7.2-7.9, room temperature, in the dark",stable for months at room temperature
same,solubility,"[2]; aqueous media, pH 7.2-7.9",10 to 12 mM
same,degraded,"[2]; aqueous solution, 10-12 mM solution, months at room temperature, in the dark, read-out: decomposition of solution",< 0.1%
same,effect on other enzymes,[3],no other enzymes are activated or inhibited
same,hypothermal effect,[4]; 78:491 (1958),6-amino group decreased the hypothermal effect
same,"antipyretic, hypnotic, hypotensive and adrenolytic action",[4]; 83:1124 (1963),"Some antipyretic, hypnotic, hypotensive and adrenolytic action"
same,cell proliferation,[5]; AA-2 cells,inhibitory effect on cell proliferation
same,Viability test / cellular toxicity,"[5]; AA-2 cells, cloning efficiency and trypan blue uptake",no evidence of toxic effects; also recorded: does not coincide with any detectable cellular toxicity
same,Cell Count After 4 days,"[5]; initial count per well 0.5 × 10^5, control 1.5 × 10^5",0.7 × 10^5 (± 35%)
same,HIV replication,[6]; beyond a virus dilution of 1:1400,profoundly inhibited HIV replication
same,p 24 generation,"[6]; day 4, 1:1400 virus dilution",completely suppressed p 24 generation
same,effect on activation by HSV IE110,[7]; 1 mM,virtually abrogates activation by HSV IE110
same,"HIV growth, U937 + HSV IE110 + 6-ABP","[7]; 1 mM, day 3",32 SFU/ml
same,"HIV growth, U937 + HSV IE110 + 6-ABP","[7]; 1 mM, day 5",64 SFU/ml
same,"HIV growth, U937 + HSV IE110 + 6-ABP","[7]; 1 mM, day 6",100 SFU/ml
same,"HIV growth, U937 + HSV IE110 + 6-ABP","[7]; 1 mM, day 8",100 SFU/ml
same,effect on IE-110(HSV)-activated growth of HIV,"[7]; 3 mM, FIG. 3",profoundly depresses IE-110(HSV)-activated growth of HIV
same,"HIV growth, U937 + HSV IE-110, reduced to background levels","[7]; 3 mM, days 4 to 8, FIG. 3",250-300 SFU per ml
same,HIV inhibition in whole blood,[8],essentially reproduced in whole blood of HIV infected patients
same,behavior,"[9]; 250 mg/kg i.p. daily, 12 days",quite normal
same,toxic effects,"[9]; 250 mg/kg i.p. daily, 12 days",no visible toxic effects
same,weight gain,"[9]; 250 mg/kg i.p. daily, 12 days",no disruption in their normal weight gain
same,seizures and weakness in one mouse,"[9]; 1 g/kg i.p., 4 hours after injection, recovered in 18 hours",seizures and hind leg weakness but then completely recovered in 18 hours
same,toxic symptoms,"[9]; 1 g/kg i.p., single, 24 hours observation",no toxic symptoms in 4 mice
same,Virus Titer +6-ABP (CMV),[10]; [13],1 × 10^3 TCID50
same,effect on CMV growth,[10]; 6-ABP treatment,effectively inhibits CMV growth
same,inhibition at 1000 µM,"[10]; Human betaherpesvirus 5, 1 mM 6-ABP, 24 hours before infection",90%
same,Virus Titer +6-ABP (RSV),[11]; [13],1 × 10^5 TCID50
same,effect on RSV growth,[11]; 6-ABP treatment,no effect
same,inhibition at 1000 µM,"[11]; human respiratory syncytial virus, 1 mM 6-ABP, 24 hours before infection",0%
same,effect on HIV growth without activator,"[12]; 3 mM, FIGS. 3 and 4",completely inhibit any viral growth; also recorded: significant effect on HIV growth
same,effect on HIV growth in absence of activating HSV gene,[12]; Table 2 experiment,significant reduction in HIV growth
same,"HIV growth, U937 + 6-ABP","[12]; day 3, no activator",13 SFU/ml
same,"HIV growth, U937 + 6-ABP","[12]; day 5, no activator",10 SFU/ml
same,"HIV growth, U937 + 6-ABP","[12]; day 6, no activator",10 SFU/ml
same,"HIV growth, U937 + 6-ABP","[12]; day 8, no activator",10 SFU/ml
